Test results reported in patent US20220235328A1, “HUMAN DISEASED AND NORMAL KIDNEY EPITHELIAL CELL CULTURES AND USES THEREOF” (DISCOVERYBIOMED, INC., priority 2019, published 2022).
Converted amounts (≈) assume the structure as drawn. Each block holds one molecule with its values, some of them ahead of it.

Assays:
[1] = tested on: ADPKD cell cultures; experiment: Cyst reduction assay, 3D CellTiterGLO cell viability, CRC design; format: cell-based, human
Text: Results are shown in FIG. 26 for a cyst reduction assay.

[2] = tested on: ADPKD cell cultures; experiment: Cyst prevention assay, 3D CellTiterGLO cell viability, CRC design; format: cell-based, human
Experimental: In this assay, the ADPKD cell cultures were incubated on 4 days before 1 week of treatment with drugs, media only or DMSO only.

[3] = Solubility limit noted in the cyst prevention assay; format: physicochemical
[4] = tested on: primary huADPKD cells; experiment: Cyst attack cystogenesis bioassay, cyst image tracking; format: cell-based, human; details: 3 μM
Experimental: Primary cells capable of 3D cystogenesis were seeded as described above for the cyst prevention cytogenesis bioassay. In the cyst attack assay, cysts were allowed to develop to 12-24 in number and allowed to expand to a significant size. Specific cysts or cyst clusters were marked in each well. A test compound was then added to attack the already formed cysts to determine effects on the cysts. […] The timing of addition of the compound, frequency of addition of the compound and concentration of the compound varied.
A prominent cyst was imaged before treatment and daily for 6 days after treatment began. This larger cyst increased by 2.5 to 3.0 fold in the presence of the industry standard drug, tolvaptan, a vasopressin receptor antagonist.

[5] = tested on: primary human ADPKD cultures; experiment: 384-well cyst attack assay, 3D CellTiterGLO cell viability; format: cell-based
Experimental: (§1) A BioTek Cytation 5 (Biotek instruments, Winooski, Vt.) high content imaging and light-based high-throughput screening imaging system was used to image the huADPKD cells growing in 3D Biogels in 96-well and 384-well microliter plates. The Cytation 5 is coupled to a BioTek BioSpa 8 (a humidified CO2 incubator), such that trays can be extracted one at a time for analysis in the reader and then returned to the BioSpa.
(§2) Concentrations of 30-1000 nM were tested for each, and data were expressed as percent viability versus DMSO control (n=12). […] Statistical analysis was performed using ANOVA.

[6] = tested on: primary huADPKD cells; experiment: Cyst prevention cystogenesis bioassay, 3D biogel, 48-well, light microscopy; details: for overt cell cytotoxicity: concentrations tested; for effect on cyst appearance and expansion: midway point and end of assay, various concentrations
Experimental: Primary cells capable of 3D cystogenesis were seeded into a 3D biogel that is liquified before the gel sets. The gel set undisturbed within a humidified 5% CO2 incubator for 18 hours. An equal volume of DBM RenalCyte media was then overlaid in each well of a 48-well plate. “Add” feeds were performed until the well was full, and then half of the volume of media was removed and new media added at the same volume thereafter. […] In the cyst prevention assay, cysts were challenged as soon as they started to appear (small in dimension and few in number per well) with a test compound. The timing of addition of the test compound, frequency of addition of the test compound and concentration of the test compound varied. The effects on the cysts were followed by light-based microscopic imaging over time. In addition to visual inspection by light-based microscopic imaging occurring throughout the study, the number of cysts were counted per well at the end of the study and light-based endpoints were examined, such as 3D CellTiter-GLO® from Promega (Madison, Wis.) (to quantify viable cells), secretion (to quantify cell membrane integrity), and/or Caspase-GLO® (Promega) (to measure induction of apoptosis) in multiplex fashion. A modified version of this assay images after seeding the biogel each day for complete prevention of cyst formation versus counterpart controls over a 14 to 21-day period. Multiple replicates were performed, and cells from multiple donors were tested.

[7] = tested on: primary huADPKD cells; experiment: 384-well cyst prevention assay, percent viability versus DMSO control; format: cell-based, human
Experimental: as §1
While no drivers are required, they can be used if desired. Edge wells are filled with saline to mitigate edge effects
(§3) Whole well automated high-content imaging was performed of ADPKD primary cells seeded in 384-well plates using the BioTek Cytation 5 system. Multiple well were captured per treatment. Uniform images were fed into deep learning algorithms for analysis.
as §2

[8] = tested on: Immortal Human ADPKD Cell Line; experiment: TEER of cell monolayers pre- and post-amiloride; format: cell-based; details: amiloride treatment
Experimental: High-titer aliquots (10^9 pfu) of Lenti-SV40T, Lenti-hTERT-Neo and Lenti-CDK4 from Applied Biological Materials (ABM) (Richmond, BC, Canada) and Lenti-CDNK2 (Sigma-Aldrich) were diluted into transfection media to 10^7 pfu for cell challenge. In some cases, Lenti-hTERT and Lenti-CDK4 or Lenti-CDNK2 were combined as a newer immortalization method. huADPKD primary cultures were selected for immortalization based on a compelling genotype, an acceptable cell proliferation rate, and an ability to form cysts in 3D Matrigel culture. Mixed immortalized cultures were established by both methods from primary cultures where the lifetime of the cells were doubled from 5 passages (primary) to 10 passages (mixed immortal). The SV40T method was successful in generating immortal cell cultures that formed electrically tight polarized cell monolayers for transepithelial resistance (TEER) measurements and likely Ussing chamber-based electrophysiological recording of ion transport. These immortal human ADPKD cell monolayers may also be useful in fluid transport assays. Transepithelial/transendothelial electrical resistance (TEER) data for a new immortalized human ADPKD cell line are shown in Table 1 below.

[9] = tested on: ADPKD cells; experiment: AVP-stimulated cystogenesis, 384-well high-content imaging; format: cell-based, human; details: 14 days culture in the presence of AVP versus absence
Experimental: as §3, with “analysis. Stimuli like cAMP agonists and growth factors were not required, as the DBM RenalCyte media was sufficient to drive cystogenesis, as shown in FIG. 14.” for “analysis.”

[10] = incubated 10 days before 1 week of treatment
[11] = incubated 4 days before 1 week of treatment
[12] = from complete loss of viability signal

SMILES: Cc1ccc(NC(=O)C2(c3ccc4c(c3)OC(F)(F)O4)CC2)nc1-c1cccc(C(=O)O)c1 [VX-809]
extent of inhibition, in words [1, 10]: only a partial effect and only at the highest concentrations | extent of inhibition, in words [2, 11]: only a partial effect and only at the highest concentration

solubility [3]: ~30 µM (≈ 13.5 µg/mL)
SMILES: Cc1ccccc1C(=O)Nc1ccc(C(=O)N2CCCC(O)c3cc(Cl)ccc32)c(C)c1 (stereo not shown) [tolvaptan]
extent of inhibition, in words [1, 10]: only a partial effect and only at the highest concentrations | size of the smaller cyst ([4]; 6 days): quickly reduced in size | size of the large cyst ([4]; week-long treatment): doubled in size but then decreased in size to a slightly reduced size | inhibition at 10 µM ([5]; Homo sapiens, 10-fold higher concentration (10 μM), 2 weeks incubation, then 1-week treatment): ~20% | efficacy, percent viability versus DMSO control ([5]; attack assay, 30-1000 nM): ineffective | cyst expansion ([6]; 10 and 30 micromolar): may have slowed cyst expansion | overt cell cytotoxicity [6]: no overt cell cytotoxicity | effect on cyst appearance and expansion [6]: little effect | IC50 ([7]; Homo sapiens, cyst prevention assays in 384-well plates, FIG. 24): > 10 µM | efficacy in cAMP stimulated assays ([7]; cAMP stimulated): only slightly more effective | concentrations at which effective ([7]; cyst prevention assays, FIG. 23): only at mid-micromolar concentrations | efficacy, percent viability versus DMSO control ([7]; prevention assay, 30-1000 nM): ineffective

SMILES: COc1cc(Nc2c(C#N)cnc3cc(OCCCN4CCN(C)CC4)c(OC)cc23)c(Cl)cc1Cl [bosutinib]
increase in size of a small cyst ([4]; in 1-2 days): 2 fold | overt cell cytotoxicity [6]: no overt cell cytotoxicity | effect on cyst appearance and expansion [6]: no effect

SMILES: N=C(N)NC(=O)c1nc(Cl)c(N)nc1N [Amiloride, amiloride]
change of transepithelial resistance, in words [8]: increase in resistance

SMILES: CC(C)(CO)c1cc2cc(NC(=O)C3(c4ccc5c(c4)OC(F)(F)O5)CC3)c(F)cc2n1C[C@@H](O)CO [VX-661]
IC50 ([1]; Homo sapiens, incubated 10 days before 1 week of treatment): 30 µM | cytotoxicity [1, 12]: overt cytotoxicity | extent of inhibition, in words [1, 10]: complete inhibition to no signal | IC50 ([2]; Homo sapiens, incubated 4 days before 1 week of treatment): 10 µM | cytotoxicity [2, 12]: overt cytotoxicity | extent of inhibition, in words [2, 11]: complete inhibition to no signal

solubility [3]: ~30 µM (≈ 27.4 µg/mL)
SMILES: CO[C@H]1C[C@@H]2CC[C@@H](C)[C@@](O)(O2)C(=O)C(=O)N2CCCC[C@H]2C(=O)O[C@H]([C@H](C)C[C@@H]2CC[C@@H](O)[C@H](OC)C2)CC(=O)[C@H](C)/C=C(\C)[C@@H](O)[C@@H](OC)C(=O)[C@H](C)C[C@H](C)/C=C/C=C/C=C/1C [rapamycin]
overt toxicity [4]: not overtly toxic

SMILES: NC(=O)CC[C@@H]1NC(=O)[C@H](Cc2ccccc2)NC(=O)[C@H](Cc2ccc(O)cc2)NC(=O)[C@@H](N)CSSC[C@@H](C(=O)N2CCC[C@H]2C(=O)N[C@@H](CCCN=C(N)N)C(=O)NCC(N)=O)NC(=O)[C@H](CC(N)=O)NC1=O [Arginine Vasopressin (AVP), Arginine Vasopressin]
cyst size [9]: more larger on average
